Measured values: patent US20250270200A1, “CTPS1 INHIBITORS AND USES THEREOF” (Nimbus Clotho, Inc., priority 2022, published 2025)

biological target: T1, human CTPS1 (Homo sapiens, UniProt P17812); assay: ADP-Glo assay, human CTPS1 enzyme inhibition; type: biochemical; conditions: wild-type human CTPS1 25 nM; ATP 120 μM, UTP 160 μM, GTP 60 μM, L-glutamine 100 μM; 25 degrees C.; read-out: ADP-Glo_WT_hCTPS1—25 nM_IC50 (IC50)
T1 sequence (P17812 1-591): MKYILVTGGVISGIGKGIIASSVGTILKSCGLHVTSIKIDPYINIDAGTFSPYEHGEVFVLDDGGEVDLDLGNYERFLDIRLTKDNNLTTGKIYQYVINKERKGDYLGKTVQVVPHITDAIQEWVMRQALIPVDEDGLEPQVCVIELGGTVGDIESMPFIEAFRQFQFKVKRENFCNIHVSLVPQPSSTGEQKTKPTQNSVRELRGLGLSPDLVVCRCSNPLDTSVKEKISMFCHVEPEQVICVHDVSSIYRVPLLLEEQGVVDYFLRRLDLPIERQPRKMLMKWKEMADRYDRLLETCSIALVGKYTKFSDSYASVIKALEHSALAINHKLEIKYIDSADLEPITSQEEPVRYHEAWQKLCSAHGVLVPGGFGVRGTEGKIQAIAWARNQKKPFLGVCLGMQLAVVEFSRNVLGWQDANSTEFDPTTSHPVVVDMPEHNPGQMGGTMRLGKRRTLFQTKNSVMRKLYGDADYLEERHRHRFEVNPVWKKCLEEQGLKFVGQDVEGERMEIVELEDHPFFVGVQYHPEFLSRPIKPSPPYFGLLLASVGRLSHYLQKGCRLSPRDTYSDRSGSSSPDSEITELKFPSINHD
Procedure: The enzyme inhibitory activities of the compounds of the invention against the target of interest were determined using the ADP-Glo™ assay (Promega). Assays for human CTPS1 and CTPS2 were performed in 1× assay buffer containing 50 mM HEPES (Life Technologies), 10 mM Mg2+, 5 mM KCl, 2 mM DTT, 0.01% F-127, pH to 7.4 accordingly. All reagents are from Sigma-Aldrich, unless specified otherwise. Purified human full length active N-terminal FLAG-8×HIS-TEV tagged CTPS1 (UniprotKB—P17812, […]-CTPS1[1-591]) was generated using a mammalian expression system at Viva Biotech (Shanghai) Ltd.
Purified human CTPS1 protein was prepared in 1× assay buffer to the final working protein concentration required for the reaction. A 2.5 μL volume per well of human CTPS 1 protein was mixed with 0.1 μL per well of test compound dissolved in DMSO and pre-incubated at 25 degrees C. for 10 minutes. 2.5 μL per well of the reaction precursors ATP (UltraPure ATP from ADP-Glo™ kit) and UTP were then added and pre-incubated for an additional 10 minutes at 25 degrees C. Finally, the reaction was initiated by the addition of 5 μL of the reaction precursors L-glutamine and GTP. The final concentration of all reaction components in the assay: ATP (120 μM), UTP (160 μM), GTP (60 μM), L-Glutamine (100 μM), DMSO (1%), hCTPS1 (25 nM). This mixture was incubated for an appropriate amount of time within the determined linear phase of the reaction at 25 degrees C. under sealed plate conditions with constant agitation at 500 revolutions per minute (rpm). ADP-Glo™ reagent was added for 60 minutes (10 μL per well) and subsequently ADP-Glo™ development reagent was added for 60 minutes (20 μL per well) prior to signal detection in a microplate reader (Envision Multilabel Reader, Perkin Elmer). Following each reagent addition over the course of the assay, assay plates were pulse centrifuged for 1 minute at 1000 rpm.
The enzyme converts ATP to ADP and the ADP-Glo™ reagent subsequently depletes any remaining ATP in the reaction system. The ADP-Glo™ detection reagents converts the ADP that has been produced by the enzyme back into ATP, which is then utilized as a substrate together with luciferin for the enzyme luciferase. Light generated by this chemiluminescent reaction is quantified and is directly proportional to the amount of ADP produced by the CTPS1 enzyme reaction. […]

Row | IC50 | SMILES
1 | 5 to 25 nM | O=C(N[C@H](c1nccc(NS(=O)(=O)C2CC2)c1F)[C@H]1CCOC1)c1ncc(-c2cnn3ccc(Cl)cc23)s1 (single isomer, unassigned) [II-3]

same assay, conditions: wild-type human CTPS1, 25 nM enzyme; ADP-Glo; read-out: ADP-Glo_WT_hCTPS1—25 nM_IC50 (IC50)

Row | SMILES | IC50
2 | CCOc1cncc(-c2cnc(C(=O)N[C@@H](CCN3CCCCC3)c3cccc(NS(=O)(=O)C(F)F)c3)s2)n1 [I-183, (S)-N-(1-(3-((difluoromethyl)sulfonamido)phenyl)-3-(piperidin-1-yl)propyl)-5-(6-ethoxypyrazin-2-yl)thiazole-2-carboxamide] | > 100 nM
3 | CCOc1cncc(-c2cnc(C(=O)N[C@@H](COC)c3nccc(NS(=O)(=O)C4CC4)n3)s2)n1 [I-98, (R)-N-(1-(4-(cyclopropanesulfonamido)pyrimidin-2-yl)-2-methoxyethyl)-5-(6-ethoxypyrazin-2-yl)thiazole-2-carboxamide] | 25 to 50 nM
4 | CCOc1cncc(-c2cnc(C(=O)N[C@H](c3cc(NS(=O)(=O)C4CC4)ccn3)[C@H]3CCCN3C)s2)n1 [I-116, N-((S)-(4-(cyclopropanesulfonamido)pyridin-2-yl)((R)-1-methylpyrrolidin-2-yl)methyl)-5-(6-ethoxypyrazin-2-yl)thiazole-2-carboxamide] | 25 to 50 nM
5 | CCOc1cncc(-c2cnc(C(=O)N[C@H](CN3CCCCC3)c3cccc(NS(=O)(=O)C(F)F)c3)s2)n1 [I-218, (S)-N-(1-(3-((difluoromethyl)sulfonamido)phenyl)-2-(piperidin-1-yl)ethyl)-5-(6-ethoxypyrazin-2-yl)thiazole-2-carboxamide] | 25 to 50 nM
6 | O=C(N[C@H](CN1CCCC1)c1cc(NS(=O)(=O)C2CC2)ccn1)c1ncc(-c2cnn3ccc(Cl)cc23)s1 [I-163, (R)-5-(5-chloropyrazolo[1,5-a]pyridin-3-yl)-N-(1-(4-(cyclopropanesulfonamido)pyridin-2-yl)-2-(pyrrolidin-1-yl)ethyl)thiazole-2-carboxamide] | 25 to 50 nM
7 | O=C(N[C@@H](CN1CCCC1)c1cc(NS(=O)(=O)C2CC2)ccn1)c1ncc(-c2cnn3ccc(Cl)cc23)s1 [I-162, (S)-5-(5-chloropyrazolo[1,5-a]pyridin-3-yl)-N-(1-(4-(cyclopropanesulfonamido)pyridin-2-yl)-2-(pyrrolidin-1-yl)ethyl)thiazole-2-carboxamide] | 50 to 100 nM
8 | CCOc1cncc(-c2cnc(C(=O)N[C@@H](CN3CC[C@@]4(CCOC4)C3)c3cc(NS(=O)(=O)C4CC4)ccn3)s2)n1 [I-125, N-((S)-1-(4-(cyclopropanesulfonamido)pyridin-2-yl)-2-((R)-2-oxa-7-azaspiro[4.4]nonan-7-yl)ethyl)-5-(6-ethoxypyrazin-2-yl)thiazole-2-carboxamide] | 25 to 50 nM
9 | CCOc1cncc(-c2cnc(C(=O)N[C@H](CCNC3CC3)c3cc(NS(=O)(=O)C4CC4)ccn3)s2)n1 [I-186, (R)-N-(1-(4-(cyclopropanesulfonamido)pyridin-2-yl)-3-(cyclopropylamino)propyl)-5-(6-ethoxypyrazin-2-yl)thiazole-2-carboxamide] | 5 to 25 nM
10 | CCOc1cncc(-c2cnc(C(=O)N[C@@H](CN3CCOCC3)c3cc(NS(=O)(=O)C4CC4)ncn3)s2)n1 (single isomer, unassigned) [I-247] | 5 to 25 nM
11 | CCOc1cncc(-c2cnc(C(=O)N[C@H](Cn3ccnn3)c3cccc(NS(=O)(=O)C(F)F)c3)s2)n1 [I-215, (S)-N-(1-(3-((difluoromethyl)sulfonamido)phenyl)-2-(1H-1,2,3-triazol-1-yl)ethyl)-5-(6-ethoxypyrazin-2-yl)thiazole-2-carboxamide] | 5 to 25 nM
12 | CCOc1cncc(-c2cnc(C(=O)N[C@H](c3cc(NS(=O)(=O)C4CC4)ccn3)[C@H]3CC(=O)N(C)C3)s2)n1 [I-120, N-((S)-(4-(cyclopropanesulfonamido)pyridin-2-yl)((S)-1-methyl-5-oxopyrrolidin-3-yl)methyl)-5-(6-ethoxypyrazin-2-yl)thiazole-2-carboxamide] | 25 to 50 nM
13 | CCOc1cncc(-c2cnc(C(=O)N[C@@H](C)c3cc(NS(=O)(=O)C4CC4)ccn3)s2)n1 [I-177, (S)-N-(1-(4-(cyclopropanesulfonamido)pyridin-2-yl)ethyl)-5-(6-ethoxypyrazin-2-yl)thiazole-2-carboxamide] | 5 to 25 nM

Continued, values first:

Row | IC50 | SMILES
14 | 5 to 25 nM | O=C(N[C@H](c1cc(NS(=O)(=O)C2CC2)ccn1)[C@H]1COCCO1)c1ncc(-c2cnn3ccc(Cl)cc23)s1 [I-77, 5-(5-chloropyrazolo[1,5-a]pyridin-3-yl)-N-((R)-(4-(cyclopropanesulfonamido)pyridin-2-yl)((S)-1,4-dioxan-2-yl)methyl)thiazole-2-carboxamide]
15 | ≤ 5 nM | CCOc1cncc(-c2cnc(C(=O)N[C@@H](c3cc(NS(=O)(=O)C4CC4)ccn3)[C@H](C)COC)s2)n1 [I-234, N-((1R,2S)-1-(4-(cyclopropanesulfonamido)pyridin-2-yl)-3-methoxy-2-methylpropyl)-5-(6-ethoxypyrazin-2-yl)thiazole-2-carboxamide]
16 | 5 to 25 nM | CCOc1cncc(-c2cnc(C(=O)N[C@@H](c3cc(NS(=O)(=O)C4CC4)ccn3)[C@H](C)N3C[C@H]4C[C@@H]3CO4)s2)n1 [I-168, N-((1R,2S)-2-((1R,4R)-2-oxa-5-azabicyclo[2.2.1]heptan-5-yl)-1-(4-(cyclopropanesulfonamido)pyridin-2-yl)propyl)-5-(6-ethoxypyrazin-2-yl)thiazole-2-carboxamide]
17 | 5 to 25 nM | CCOc1cncc(-c2cnc(C(=O)N[C@H](c3cc(NS(=O)(=O)C4CC4)ccn3)[C@@H]3CCN(CCF)C3)s2)n1 [I-108, N-((S)-(4-(cyclopropanesulfonamido)pyridin-2-yl)((R)-1-(2-fluoroethyl)pyrrolidin-3-yl)methyl)-5-(6-ethoxypyrazin-2-yl)thiazole-2-carboxamide]
18 | 5 to 25 nM | CCOc1cncc(-c2cnc(C(=O)N[C@H](C)c3cc(NS(=O)(=O)C4CC4)ccn3)s2)n1 [I-176, (R)-N-(1-(4-(cyclopropanesulfonamido)pyridin-2-yl)ethyl)-5-(6-ethoxypyrazin-2-yl)thiazole-2-carboxamide]
19 | 5 to 25 nM | C[C@H](O)[C@@H](NC(=O)c1ncc(-c2cnn3ccc(Cl)cc23)s1)c1cc(NS(=O)(=O)C2CC2)ccn1 [I-273, 5-(5-chloropyrazolo[1,5-a]pyridin-3-yl)-N-((1S,2S)-1-(4-(cyclopropanesulfonamido)pyridin-2-yl)-2-hydroxypropyl)thiazole-2-carboxamide]
20 | 5 to 25 nM | CCOc1cncc(-c2cnc(C(=O)N[C@@H](c3cccc(NS(=O)(=O)C(F)F)c3)C3CCOCC3)s2)n1 [I-195, (R)-N-((3-((difluoromethyl)sulfonamido)phenyl)(tetrahydro-2H-pyran-4-yl)methyl)-5-(6-ethoxypyrazin-2-yl)thiazole-2-carboxamide]
21 | 5 to 25 nM | CCOc1cncc(-c2cnc(C(=O)N[C@@H](CF)c3cc(NS(=O)(=O)C4CC4)ccn3)s2)n1 [I-160, (R)-N-(1-(4-(cyclopropanesulfonamido)pyridin-2-yl)-2-fluoroethyl)-5-(6-ethoxypyrazin-2-yl)thiazole-2-carboxamide]
22 | 5 to 25 nM | CCOc1cncc(-c2cnc(C(=O)N[C@H](CN3CC[C@@](C)(O)C3)c3cc(NS(=O)(=O)C4CC4)ccn3)s2)n1 [I-132, N-((R)-1-(4-(cyclopropanesulfonamido)pyridin-2-yl)-2-((R)-3-hydroxy-3-methylpyrrolidin-1-yl)ethyl)-5-(6-ethoxypyrazin-2-yl)thiazole-2-carboxamide]
